Drawing on PubChem BioAssay (NCI), this text covers TGI for nine compounds.

Common to all, as to assay: inhibition of tumour cell growth, NCI panel, 48 h
Assay [1] relates to SF-295 CNS.
In assay [2] the test system is 786-0 renal.
Assay [3] deals with HCT-116 colon.
In assay [4] the test system is UO-31 renal.
The subject of assay [5] is SW-620 colon.
The test system of assay [6] is SNB-75 CNS.
The subject of assay [7] is MDA-MB-231 breast.
The test system of assay [8] is SNB-19 CNS.
The subject of assay [9] is CAKI-1 renal.
Assay [10] relates to HT29 colon.
Assay [11] deals with U251 CNS.
Assay [12] concerns OVCAR-3 ovarian.
For assay [13], the system named is MDA-MB-435.
For assay [14], the system named is PC-3 prostate.
Assay [15] relates to MOLT-4 leukemia.
Assay [16] concerns RXF 393 renal.
Assay [17] has as its system SR leukemia.
Assay [18] concerns K-562 leukemia.

Each structure is given as a SMILES string.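 All cell lines were grown in 96-well plates and treated with compound for 48 hours. At the TGI there is no net growth.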 Where a SMILES comes first, the peptide text is derived from it. The star is where a group is joined. Boc = CC(C)(C)OC(=O)*

For `O=c1c(-c2ccccc2Cl)coc2cc(F)ccc12`, the TGI in [1] is 48.6 µM; in assay [2], over 100 µM; in assay [3] it was over 100 µM; in [4], over 100 µM; in [5], over 100 µM; in [6], 54.5 µM. The TGI in assay [7] was 67.3 µM; in assay [8] it was over 100 µM; in assay [9], over 100 µM; in assay [10] it was over 100 µM; in assay [11] it was 35.3 µM; in assay [12], over 100 µM. Besides, the TGI in assay [13] was 4.31 µM; in [14] it was over 100 µM; in [15], over 100 µM; in assay [16], over 100 µM.

Take `O=C1CCCCC[C@]12SC[C@H]1CON=C12`: the TGI in [1], in assay [2], in [3], in assay [4], in [5] and in assay [8] was over 100 µM throughout. In addition, the TGI in assay [17] was over 100 µM; in [9], 58 µM; in assay [10] it was over 100 µM; in assay [11], 42.2 µM; in assay [12], over 100 µM; in assay [13], 39.5 µM. The figures for the TGI in assay [15], in assay [18] and in assay [16] were over 100 µM, over 100 µM and 77.1 µM, respectively.

With `CC(C)CC1[C@@H](OCc2ccccc2)COS(=O)(=O)N1Cc1ccccc1` (some centres undefined), the TGI in assay [1] was over 100 µM; in assay [2], over 100 µM; in assay [3], over 100 µM; in assay [4] it was 97.6 µM; in [5], over 100 µM; in assay [6], over 100 µM. Besides, the TGI in assay [7], in [8], in assay [9], in assay [10], in assay [11] and in [12] was over 100 µM each time. The TGI in assay [13], in assay [14], in assay [15] and in assay [18] was over 100 µM throughout.

For `Cn1c2ccccc2n2c(=O)c3cccnc3c(C#N)c12`, the TGI in assay [1], in [2], in [3], in assay [5], in assay [6] and in assay [7] was over 100 µM in each case. In addition, the TGI in assay [9], in assay [10], in [11], in [12], in [13] and in assay [15] was over 100 µM in each case. For the same compound, the TGI in assay [16] is over 100 µM.

With `CC(=N/NC(=S)N1CCCCC1)/C(C)=N\NC(=S)N1CCCCC1`, the TGI in assay [1] was found to be 3.74 µM; in assay [2], 3.1 µM; in assay [4] it was 2.79 µM; in [6], 3.14 µM; in assay [7] it was 5.63 µM; in assay [8], 3.54 µM. In addition, the TGI was 3.23 µM in assay [9]; 4.07 µM in [10]; 3.39 µM in [12]; 3.79 µM in [13]; over 100 µM in [15]; 6.89 µM in [18]. Also, the TGI in assay [16] was 3.2 µM.

`COc1cc(C(=O)Nc2c3ccccc3nc3ccccc23)cc(OC)c1OC`: the TGI in assay [1], in assay [2], in [3], in [4], in [5] and in [7] was over 100 µM in each case. In addition, the TGI was over 100 µM in [8]; over 67 µM in [9]; over 100 µM in assay [10]; over 100 µM in assay [11]; over 100 µM in assay [12]; over 100 µM in [13]. Moreover, the TGI in [14], in assay [15], in assay [18] and in assay [16] was over 100 µM throughout.

Turning to `O=C(NCCCCNCCCNC(=O)c1cc(-c2ccccc2)nc2ccccc12)c1cc(-c2ccccc2)nc2ccccc12`, the TGI is 3.17 µM in assay [1]; 3.03 µM in assay [2]; 3.2 µM in assay [3]; 3.21 µM in [4]; 3.1 µM in assay [5]; 6.09 µM in assay [17]. In addition, the TGI in assay [9] was found to be 3.82 µM; in assay [10], 3.1 µM; in [11], 3.32 µM; in [12], 2.99 µM; in [13] it was 3.17 µM; in assay [14], 2.98 µM. Further, the TGI in assay [16] came to 3.97 µM.

In the case of `CCOCC(NC(=O)C(CC(C)C)NC(=O)OC(C)(C)C)C(N)=O` (stereo not drawn) (Boc-Leu-Ser(Et)-NH2; configuration not given here), the TGI in assay [1] is over 100 µM; in assay [2] it was over 100 µM; in assay [3] it was over 100 µM; in assay [4] it was over 100 µM; in [5] it was 3.27 µM; in [6] it was over 100 µM. Moreover, the TGI in [7] was over 100 µM; in [8], over 100 µM; in assay [9], over 100 µM; in assay [10], over 100 µM; in [11], 2.79 µM; in assay [12] it was over 100 µM. In addition, the TGI in assay [13], in assay [14], in [15] and in assay [16] was over 100 µM throughout.

With `NC12CC3CC4C1CC1CC2C(C3)C4(N)C1`, the TGI in assay [1], in assay [2], in assay [3], in [4], in [5] and in assay [7] was over 100 µM in each case. Moreover, the TGI in assay [8], in [9], in [10], in assay [11], in assay [12] and in [13] was over 100 µM in each case. Also, the TGI in [14], in [15], in assay [18] and in assay [16] was over 100 µM each time.
